Like-named read-outs stand apart in the source and are kept apart here.
How the values were obtained:
[1] = test system: NF-κB; assay: NF-κB assay: THP1-NF-κB-LUC cells, LPS-stimulated secreted luciferase; type: cell-based; settings: THP1-NF-κB-LUC cells, read-out: IC50 (NF-κB assay)
Summary of the method: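 THP1-NF-κB-LUC cells (25k/well) were pretreated with compounds for 2 h, then stimulated with LPS (10 ng/mL) for 18 h. Secreted luciferase was measured and normalized to vehicle, and IC50 was fitted from the concentration series.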

[2] = test system: TNF release; assay: TNF assay: TNF release from LPS-stimulated human PBMCs (TNF ELISA); type: cell-based; settings: PBMC, read-out: IC50 (TNF assay)
Summary of the method: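 Human PBMCs at 10k/well pretreated with compound dilutions 2 h, then stimulated with LPS (10 ng/mL) for 18 h. TNF in supernatants quantified by ELISA; IC50 for inhibition of TNF release fitted from concentration–response.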

[3] = compounds 2 hours before LPS (10 ng/mL) for 18 hours, secreted luciferase
[4] = human PBMCs, compounds 2 hours before LPS (10 ng/ml) for 18 hours, supernatant TNF ELISA
[5] = LPS-stimulated human PBMCs, TNF ELISA

SMILES	IC50 [1, 3]	IC50 [2, 4]	IC50 ([1]; LPS-stimulated)	IC50 [2, 5]
COc1ccc(NS(=O)(=O)c2cc3c(cc2Cl)NC(=O)C(C)O3)cc1 (stereo not drawn) [BC19706]	< 0.1 µM	> 10 µM	–	–
COc1ccc(NS(=O)(=O)c2cc(Cl)cc3c2OC(C)C(=O)N3)cc1 (stereo not drawn) [BC19707]	< 0.1 µM	> 10 µM	–	–
Cc1ccc(NS(=O)(=O)c2cc3c(cc2Cl)NC(=O)C(C)O3)cc1Cl (stereo not drawn) [BC19708]	< 0.1 µM	> 10 µM	–	–
CC1Oc2cc(S(=O)(=O)Nc3ccc(F)cc3F)c(Cl)cc2NC1=O (stereo not drawn) [BC19709]	< 0.1 µM	> 10 µM	–	–
CC1Oc2c(cc(Cl)cc2S(=O)(=O)Nc2ccc(F)cc2F)NC1=O (stereo not drawn) [BC19710]	< 0.1 µM	> 10 µM	–	–
CCc1cccc(NS(=O)(=O)c2cc3c(cc2Cl)NC(=O)C(C)O3)c1 (stereo not drawn) [BC19711]	< 0.1 µM	> 10 µM	–	–
CCc1cccc(NS(=O)(=O)c2cc(Cl)cc3c2OC(C)C(=O)N3)c1 (stereo not drawn) [BC19712]	< 0.1 µM	> 10 µM	–	–
CC1Oc2cc(S(=O)(=O)Nc3cccc(F)c3)c(Cl)cc2NC1=O (stereo not drawn) [BC19713]	0.1 to 1 µM	1 to 10 µM	–	–
CC1Oc2c(cc(Cl)cc2S(=O)(=O)Nc2cccc(F)c2)NC1=O (stereo not drawn) [BC19714]	< 0.1 µM	1 to 10 µM	–	–
CC1Oc2cc(S(=O)(=O)Nc3cccc(Cl)c3)c(Cl)cc2NC1=O (stereo not drawn) [BC19715]	< 0.1 µM	1 to 10 µM	–	–
CC1Oc2c(cc(Cl)cc2S(=O)(=O)Nc2cccc(Cl)c2)NC1=O (stereo not drawn) [BC19716]	< 0.1 µM	1 to 10 µM	–	–
Cc1ccc(NS(=O)(=O)c2cc3c(cc2Cl)NC(=O)C(C)O3)cc1 (stereo not drawn) [BC19717]	< 0.1 µM	> 10 µM	–	–
Cc1ccc(NS(=O)(=O)c2cc(Cl)cc3c2OC(C)C(=O)N3)cc1 (stereo not drawn) [BC19718]	< 0.1 µM	1 to 10 µM	–	–
CC1Oc2cc(S(=O)(=O)Nc3ccc(F)cc3Cl)c(Cl)cc2NC1=O (stereo not drawn) [BC19719]	0.1 to 1 µM	> 10 µM	–	–
CC1Oc2c(cc(Cl)cc2S(=O)(=O)Nc2ccc(F)cc2Cl)NC1=O (stereo not drawn) [BC19720]	< 0.1 µM	> 10 µM	–	–
CC1Oc2cc(S(=O)(=O)Nc3ccc(F)cc3)c(Cl)cc2NC1=O (stereo not drawn) [BC19721]	< 0.1 µM	1 to 10 µM	–	–
CC1Oc2c(cc(Cl)cc2S(=O)(=O)Nc2ccc(F)cc2)NC1=O (stereo not drawn) [BC19722]	< 0.1 µM	1 to 10 µM	–	–
CN1CCN(C(=O)C2Cc3nc(-c4ccc(F)cc4)c(-c4ccc(F)cc4)nc3C2)CC1 [BC19723]	–	–	0.1 to 1 µM	> 10 µM
CCC[S+]([O-])c1sc(-c2cccnc2)nc1S(=O)(=O)c1ccc(Cl)cc1 (stereo not drawn) [BC19724]	–	–	1 to 10 µM	1 to 10 µM
CC(C)[S+]([O-])c1sc(-c2cccnc2)nc1S(=O)(=O)c1ccc(Cl)cc1 (stereo not drawn) [BC19725]	–	–	> 10 µM	> 10 µM
CC(C)Sc1snc(-c2ccc(F)cc2)c1S(=O)(=O)c1ccc(Cl)cc1 [BC19726]	–	–	> 10 µM	> 10 µM
CC(C)[S+]([O-])c1snc(-c2ccc(F)cc2)c1S(=O)(=O)c1ccc(Cl)cc1 (stereo not drawn) [BC19727]	–	–	1 to 10 µM	1 to 10 µM
CC(C)S(=O)(=O)c1snc(-c2ccc(F)cc2)c1S(=O)(=O)c1ccc(Cl)cc1 [BC19728]	–	–	> 10 µM	1 to 10 µM

SMILES	IC50 [1, 3]	IC50 [2, 4]	IC50 ([1]; LPS-stimulated)	IC50 [2, 5]
CC1Oc2cc(S(=O)(=O)Nc3ccc(C#N)cc3)c(Cl)cc2NC1=O (stereo not drawn) [BC19729]	0.1 to 1 µM	> 10 µM	–	–
CC1Oc2c(cc(Cl)cc2S(=O)(=O)Nc2ccc(C#N)cc2)NC1=O (stereo not drawn) [BC19730]	< 0.1 µM	> 10 µM	–	–
CCC1Oc2cc(S(=O)(=O)Nc3ccc(F)cc3)c(Cl)cc2NC1=O (stereo not drawn) [BC19731]	0.1 to 1 µM	> 10 µM	–	–
CCC1Oc2c(cc(Cl)cc2S(=O)(=O)Nc2ccc(F)cc2)NC1=O (stereo not drawn) [BC19732]	< 0.1 µM	1 to 10 µM	–	–
CCC1Oc2cc(S(=O)(=O)Nc3ccc(OC(F)(F)F)cc3)c(Cl)cc2NC1=O (stereo not drawn) [BC19733]	< 0.1 µM	> 10 µM	–	–
CCC1Oc2c(cc(Cl)cc2S(=O)(=O)Nc2ccc(OC(F)(F)F)cc2)NC1=O (stereo not drawn) [BC19734]	< 0.1 µM	> 10 µM	–	–
CCC1Oc2cc(S(=O)(=O)Nc3ccc(F)c(F)c3)c(Cl)cc2NC1=O (stereo not drawn) [BC19735]	< 0.1 µM	> 10 µM	–	–
CCC1Oc2c(cc(Cl)cc2S(=O)(=O)Nc2ccc(F)c(F)c2)NC1=O (stereo not drawn) [BC19736]	< 0.1 µM	> 10 µM	–	–
CCC1Oc2cc(S(=O)(=O)Nc3ccccc3)c(Cl)cc2NC1=O (stereo not drawn) [BC19737]	0.1 to 1 µM	> 10 µM	–	–
CCC1Oc2c(cc(Cl)cc2S(=O)(=O)Nc2ccccc2)NC1=O (stereo not drawn) [BC19738]	< 0.1 µM	> 10 µM	–	–
CCC1Oc2cc(S(=O)(=O)Nc3ccc(Cl)cc3)c(Cl)cc2NC1=O (stereo not drawn) [BC19739]	< 0.1 µM	> 10 µM	–	–
CCC1Oc2c(cc(Cl)cc2S(=O)(=O)Nc2ccc(Cl)cc2)NC1=O (stereo not drawn) [BC19740]	< 0.1 µM	> 10 µM	–	–
CCc1ccc(NS(=O)(=O)c2cc3c(cc2Cl)NC(=O)C(CC)O3)cc1 (stereo not drawn) [BC19741]	< 0.1 µM	> 10 µM	–	–
CCc1ccc(NS(=O)(=O)c2cc(Cl)cc3c2OC(CC)C(=O)N3)cc1 (stereo not drawn) [BC19742]	< 0.1 µM	1 to 10 µM	–	–
CCC1Oc2c(cc(Cl)cc2S(=O)(=O)Nc2ccc(OC)c(Cl)c2)NC1=O (stereo not drawn) [BC19744]	< 0.1 µM	1 to 10 µM	–	–
CCC1Oc2c(cc(Cl)cc2S(=O)(=O)Nc2ccc(C)c(Cl)c2)NC1=O (stereo not drawn) [BC19746]	< 0.1 µM	> 10 µM	–	–
CCC1Oc2c(cc(Cl)cc2S(=O)(=O)Nc2ccc(F)cc2F)NC1=O (stereo not drawn) [BC19748]	< 0.1 µM	> 10 µM	–	–
CCc1cccc(NS(=O)(=O)c2cc3c(cc2Cl)NC(=O)C(CC)O3)c1 (stereo not drawn) [BC19749]	0.1 to 1 µM	> 10 µM	–	–
CCc1cccc(NS(=O)(=O)c2cc(Cl)cc3c2OC(CC)C(=O)N3)c1 (stereo not drawn) [BC19750]	< 0.1 µM	> 10 µM	–	–
CCC1Oc2cc(S(=O)(=O)Nc3cccc(Cl)c3)c(Cl)cc2NC1=O (stereo not drawn) [BC19751]	0.1 to 1 µM	> 10 µM	–	–
CCC1Oc2c(cc(Cl)cc2S(=O)(=O)Nc2cccc(Cl)c2)NC1=O (stereo not drawn) [BC19752]	< 0.1 µM	> 10 µM	–	–
CCC1Oc2cc(S(=O)(=O)Nc3ccc(C)cc3)c(Cl)cc2NC1=O (stereo not drawn) [BC19753]	< 0.1 µM	> 10 µM	–	–
CCC1Oc2c(cc(Cl)cc2S(=O)(=O)Nc2ccc(C)cc2)NC1=O (stereo not drawn) [BC19754]	< 0.1 µM	1 to 10 µM	–	–

SMILES	IC50 [1, 3]	IC50 [2, 4]	IC50 ([1]; LPS-stimulated)	IC50 [2, 5]
CCC1Oc2cc(S(=O)(=O)Nc3ccc(F)cc3Cl)c(Cl)cc2NC1=O (stereo not drawn) [BC19755]	1 to 10 µM	> 10 µM	–	–
CCC1Oc2c(cc(Cl)cc2S(=O)(=O)Nc2ccc(F)cc2Cl)NC1=O (stereo not drawn) [BC19756]	< 0.1 µM	> 10 µM	–	–
CC(C)CC1Oc2c(cc(Br)cc2S(=O)(=O)Nc2ccc(OC(F)(F)F)cc2)NC1=O (stereo not drawn) [BC19757]	< 0.1 µM	> 10 µM	–	–
CC(C)CC1Oc2cc(S(=O)(=O)Nc3ccc(OC(F)(F)F)cc3)c(Br)cc2NC1=O (stereo not drawn) [BC19758]	0.1 to 1 µM	> 10 µM	–	–
CC(C)CC1Oc2c(cc(Br)cc2S(=O)(=O)Nc2ccc(F)c(F)c2)NC1=O (stereo not drawn) [BC19759]	< 0.1 µM	> 10 µM	–	–
CC(C)CC1Oc2cc(S(=O)(=O)Nc3ccc(F)c(F)c3)c(Br)cc2NC1=O (stereo not drawn) [BC19760]	< 0.1 µM	> 10 µM	–	–
CC(C)CC1Oc2c(cc(Br)cc2S(=O)(=O)Nc2ccccc2)NC1=O (stereo not drawn) [BC19761]	0.1 to 1 µM	> 10 µM	–	–
CC(C)CC1Oc2cc(S(=O)(=O)Nc3ccccc3)c(Br)cc2NC1=O (stereo not drawn) [BC19762]	0.1 to 1 µM	> 10 µM	–	–
CCc1ccc(NS(=O)(=O)c2cc(Br)cc3c2OC(CC(C)C)C(=O)N3)cc1 (stereo not drawn) [BC19763]	0.1 to 1 µM	1 to 10 µM	–	–
CCc1ccc(NS(=O)(=O)c2cc3c(cc2Br)NC(=O)C(CC(C)C)O3)cc1 (stereo not drawn) [BC19764]	1 to 10 µM	> 10 µM	–	–
CC(C)CC1Oc2c(cc(Br)cc2S(=O)(=O)Nc2ccc(C(C)C)cc2)NC1=O (stereo not drawn) [BC19765]	< 0.1 µM	> 10 µM	–	–
CC(C)CC1Oc2cc(S(=O)(=O)Nc3ccc(C(C)C)cc3)c(Br)cc2NC1=O (stereo not drawn) [BC19766]	1 to 10 µM	1 to 10 µM	–	–
Cc1ccc(NS(=O)(=O)c2cc(Br)cc3c2OC(CC(C)C)C(=O)N3)cc1Cl (stereo not drawn) [BC19767]	< 0.1 µM	> 10 µM	–	–
Cc1ccc(NS(=O)(=O)c2cc3c(cc2Br)NC(=O)C(CC(C)C)O3)cc1Cl (stereo not drawn) [BC19768]	1 to 10 µM	> 10 µM	–	–
CC(C)CC1Oc2c(cc(Br)cc2S(=O)(=O)Nc2ccc(F)cc2F)NC1=O (stereo not drawn) [BC19769]	< 0.1 µM	> 10 µM	–	–
CC(C)CC1Oc2cc(S(=O)(=O)Nc3ccc(F)cc3F)c(Br)cc2NC1=O (stereo not drawn) [BC19770]	0.1 to 1 µM	> 10 µM	–	–
CCc1cccc(NS(=O)(=O)c2cc(Br)cc3c2OC(CC(C)C)C(=O)N3)c1 (stereo not drawn) [BC19771]	< 0.1 µM	> 10 µM	–	–
CCc1cccc(NS(=O)(=O)c2cc3c(cc2Br)NC(=O)C(CC(C)C)O3)c1 (stereo not drawn) [BC19772]	0.1 to 1 µM	> 10 µM	–	–
CC(C)CC1Oc2c(cc(Br)cc2S(=O)(=O)Nc2cccc(F)c2)NC1=O (stereo not drawn) [BC19773]	< 0.1 µM	> 10 µM	–	–
CC(C)CC1Oc2cc(S(=O)(=O)Nc3cccc(F)c3)c(Br)cc2NC1=O (stereo not drawn) [BC19774]	0.1 to 1 µM	> 10 µM	–	–
CC(C)CC1Oc2c(cc(Br)cc2S(=O)(=O)Nc2cccc(Cl)c2)NC1=O (stereo not drawn) [BC19775]	< 0.1 µM	> 10 µM	–	–
CC(C)CC1Oc2cc(S(=O)(=O)Nc3cccc(Cl)c3)c(Br)cc2NC1=O (stereo not drawn) [BC19776]	0.1 to 1 µM	> 10 µM	–	–
CC(C)CC1Oc2c(cc(Br)cc2S(=O)(=O)Nc2ccc(F)cc2Cl)NC1=O (stereo not drawn) [BC19777]	< 0.1 µM	> 10 µM	–	–

Reference: patent US12606528B2, “Methods and materials for inhibiting NF-kB activity” (University of Pittsburgh - Of the Commonwealth System of …, priority 2019, dated 2026)
